Experimental data: patent publication US5393780A, “4-fluorobiphenyl derivatives” (priority 1993, dated 1995)

Assays:
[1] = Determination of Partition Coefficient (n-octanol/phosphoric acid buffer pH 7.0); assay type: physicochemical; conditions: P=Co/Cw; for logD: n-octanol/phosphate buffer
Description: Determination of Partition Coefficient
The partition coefficient of each of representative compounds synthesized in the above-mentioned Examples was determined in accordance with the method by Hansh et al. (J. Am. Chem. Soc., 86, 5175 (1964)).
More specifically, the compound to be tested was dissolved in either an n-octanol solution which was saturated with a phosphoric acid buffer solution of pH 7.0 (Solution A) or a phosphoric acid buffer solution of pH 7.0 saturated with n-octanol (Solution B).
5 ml of the solution (Solution A or Solution B) in which the compound was dissolved and 5 ml of the solution (Solution B or Solution A) in which the compound was not dissolved were placed in a screw vial tube, and shaken for 30 minutes. This mixed solution was centrifuged for 15 minutes, and was then allowed to stand. The mixed solution was separated into two phases, that is, a water phase and a n-octanol phase.
The concentration of the compound in the water phase was determined by the UV method, and the concentration of the compound in the n-octanol phase was determined by deducting the concentration of the compound in the water phase from the concentration of the compound in the initially mixed solution (Solution A and Solution B).
The partition coefficient of the compound was calculated in accordance with the following formula:
Partition coefficient (P)=Co/Cw
wherein Co is the concentration of the compound in the n-octanol phase, and Cw is the concentration of the compound in the water phase.

[2] = target: T1, HMG-CoA Reductase (Rattus norvegicus, UniProt P51639); test: biochemical; conditions: read-out: HMG-CoA Reductase Inhibition %
T1 sequence (P51639 1-887): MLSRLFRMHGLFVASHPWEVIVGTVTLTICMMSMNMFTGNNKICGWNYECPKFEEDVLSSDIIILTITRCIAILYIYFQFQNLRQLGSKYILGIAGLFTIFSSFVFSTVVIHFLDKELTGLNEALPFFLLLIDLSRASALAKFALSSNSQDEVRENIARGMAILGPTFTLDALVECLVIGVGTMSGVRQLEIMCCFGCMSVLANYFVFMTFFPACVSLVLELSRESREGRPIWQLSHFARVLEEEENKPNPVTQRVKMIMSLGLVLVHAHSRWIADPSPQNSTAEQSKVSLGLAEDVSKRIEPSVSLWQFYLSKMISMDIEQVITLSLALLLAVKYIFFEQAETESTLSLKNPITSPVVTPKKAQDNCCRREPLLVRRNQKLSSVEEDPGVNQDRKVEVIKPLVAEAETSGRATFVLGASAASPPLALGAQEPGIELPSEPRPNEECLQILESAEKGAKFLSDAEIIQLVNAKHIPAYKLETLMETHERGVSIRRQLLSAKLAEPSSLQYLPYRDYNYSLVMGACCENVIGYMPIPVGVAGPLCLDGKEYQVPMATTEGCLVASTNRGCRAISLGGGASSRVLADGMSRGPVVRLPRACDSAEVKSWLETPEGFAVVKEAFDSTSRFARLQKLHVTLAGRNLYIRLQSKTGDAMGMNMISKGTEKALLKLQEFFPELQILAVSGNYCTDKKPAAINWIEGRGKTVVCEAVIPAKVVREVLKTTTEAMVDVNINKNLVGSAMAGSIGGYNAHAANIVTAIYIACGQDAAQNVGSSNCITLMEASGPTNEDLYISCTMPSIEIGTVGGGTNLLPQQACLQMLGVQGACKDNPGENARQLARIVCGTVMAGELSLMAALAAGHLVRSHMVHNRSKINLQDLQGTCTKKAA
Description: Determination of Inhibitory Activity on HMG-CoA Reductase
The inhibitory effect on HMG-CoA Reductase of each of representative examples of the 4-fluorobiphenyl derivatives prepared in the above-discussed examples was determined in accordance with the method described in Journal of Biological Chemistry (J. Biol. Chem.) Vol. 234, page 2835 (1959).

[3] = tested on: biosynthesis of sterol; test: Determination of Inhibition of Sterol Synthesis (14C-acetic acid, liver, after oral dosing); assay type: in vivo, SD rat; conditions: 14C-acetic acid five hours later
Description: Determination of Inhibition of Sterol Synthesis
Representative compounds (0.3 mg/5 ml/kg) suspended in a 5% arabic gum solution were orally given to SD rate weighing 150 to 200 g.
Five hours later, ^14 C-acetic acid (100 μCi/kg) was intraperitoneally injected, and furthermore one hour later, liver was removed to determine the inhibitory activity of each of the compounds on the biosynthesis of sterol.

[4] = tested on: cholesterol in the blood; conditions: cited from earlier work
[5] = target: T2, HMG-CoA Reductase (Homo sapiens, UniProt P04035); conditions: cited from earlier work
T2 sequence (P04035 1-888): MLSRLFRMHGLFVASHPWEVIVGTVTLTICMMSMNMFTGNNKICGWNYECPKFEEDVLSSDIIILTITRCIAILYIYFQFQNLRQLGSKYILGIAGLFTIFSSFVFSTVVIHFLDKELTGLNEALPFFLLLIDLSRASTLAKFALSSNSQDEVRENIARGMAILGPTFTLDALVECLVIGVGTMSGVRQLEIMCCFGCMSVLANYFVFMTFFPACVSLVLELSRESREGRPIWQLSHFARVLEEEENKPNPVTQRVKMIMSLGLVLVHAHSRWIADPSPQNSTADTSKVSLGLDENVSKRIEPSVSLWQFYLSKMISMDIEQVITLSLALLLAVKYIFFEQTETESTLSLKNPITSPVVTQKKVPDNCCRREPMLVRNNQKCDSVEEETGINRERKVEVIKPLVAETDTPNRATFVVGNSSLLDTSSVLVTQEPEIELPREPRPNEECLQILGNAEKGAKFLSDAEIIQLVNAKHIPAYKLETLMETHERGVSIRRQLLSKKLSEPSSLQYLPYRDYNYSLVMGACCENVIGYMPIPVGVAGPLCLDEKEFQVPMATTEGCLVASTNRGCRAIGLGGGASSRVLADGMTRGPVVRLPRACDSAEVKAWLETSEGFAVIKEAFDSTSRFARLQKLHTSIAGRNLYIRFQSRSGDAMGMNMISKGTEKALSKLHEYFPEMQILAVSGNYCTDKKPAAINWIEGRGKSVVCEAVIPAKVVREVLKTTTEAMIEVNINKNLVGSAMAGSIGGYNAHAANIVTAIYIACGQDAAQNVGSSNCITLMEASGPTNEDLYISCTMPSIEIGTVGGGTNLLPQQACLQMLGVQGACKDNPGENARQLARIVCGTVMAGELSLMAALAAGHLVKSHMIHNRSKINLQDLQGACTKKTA

[6] = tested on: liver cells and non-liver cells; conditions: cited from earlier work
[7] = cited from earlier work
[8] = referred to JAMA (Japanese Edition) October 1991 Supplement, pages 42-47; cited from earlier work
[9] = tested on: cells of smooth muscles; conditions: advantage over pravastatin; cited from earlier work
[10] = literature reports; cited from earlier work

| SMILES | logD [1] | inhibition at 0.1 µM [2] [%] | Sterol Synthesis Inhibition % ([3]; Administered amount 0.3 mg/kg) [%] | cholesterol lowering effect [4] | also measured |
| --- | --- | --- | --- | --- | --- |
| COCCOc1cc(-c2ccc(F)cc2)c(/C=C/C(O)CC(O)CC(=O)[O-])c(C(C)C)c1.[Na+] (centres unmarked) | 0.716 | 96 | 30 | – | – |
| COCCOCCOc1cc(-c2ccc(F)cc2)c(/C=C/C(O)CC(O)CC(=O)O)c(C(C)C)c1 (centres unmarked) | 0.519 | – | – | – | – |
| CC(C)c1cc(OCc2ccccn2)cc(-c2ccc(F)cc2)c1/C=C/C(O)CC(O)CC(=O)O (centres unmarked) | 1.43 | 95 | – | – | – |
| CC(C)c1cc(OCc2cccnc2)cc(-c2ccc(F)cc2)c1/C=C/C(O)CC(O)CC(=O)O (centres unmarked) | 1.41 | 95 | – | – | – |
| CC(C)c1cc(OCc2ccncc2)cc(-c2ccc(F)cc2)c1/C=C/C(O)CC(O)CC(=O)O (centres unmarked) | 1.48 | 96 | – | – | – |
| CC(C)c1cc(OCCO)cc(-c2ccc(F)cc2)c1/C=C/C(O)CC(O)CC(=O)[O-].[Na+] (centres unmarked) | 0.114 | 98 | 40 | – | – |
| CC[C@H](C)C(=O)O[C@H]1CCC=C2C=C[C@H](C)[C@H](CC[C@@H]3C[C@@H](O)CC(=O)O3)[C@H]21 [ML-236B, Mevastatin] | – | – | – | capable of lowering the concentration of cholesterol in the blood | inhibitory effect on HMG-CoA reductase [5]: competitive inhibitory effect on HMG-CoA reductase |
| CC[C@H](C)C(=O)O[C@H]1C[C@H](O)C=C2C=C[C@H](C)[C@H](CC[C@@H](O)C[C@@H](O)CC(=O)O)[C@H]21 [Pravastatin] | -0.444 | 88 | – | – | Partition Coefficient [1]: 0.36; incorporation into liver / non-liver cells [6]: not incorporated into histoblasts other than those of liver; water-solubility / lipid-solubility [7]: highly water-soluble; Sterol Synthesis Inhibition % ([3]; Administered amount 1 mg/kg): 16%; Partition Coefficient (literature) [8]: 0.34 |
| CCC(C)(C)C(=O)O[C@H]1C[C@@H](C)C=C2C=C[C@H](C)[C@H](CC[C@@H]3C[C@@H](O)CC(=O)O3)[C@H]21 [Simvastatin] | – | – | 1 | strong cholesterol lowering effect | Partition Coefficient ([1]; ring-opened type sodium salt): 74; cytostatic function with respect to the cells of smooth muscles [9]: antiarteriosclerosis effect because of its cytostatic function with respect to the cells of smooth muscles; Sterol Synthesis Inhibition % ([3]; Administered amount 1 mg/kg): 41%; Partition Coefficient (literature) [8]: 75.8 |
| CC[C@H](C)C(=O)O[C@H]1C[C@@H](C)C=C2C=C[C@H](C)[C@H](CC[C@@H]3C[C@@H](O)CC(=O)O3)[C@H]21 [lovastatin] | – | – | – | strong cholesterol lowering effect | incorporation into liver / non-liver cells [6]: transferred into both liver cells and non-liver cells; side effects [10]: myositis and sleep disorder; water-solubility / lipid-solubility [7]: highly lipid-soluble |
